# Columns and labels:
# [1] = target: T1, recombinant human ASK1 protein (Homo sapiens, UniProt Q99683); assay: Evaluation of ASK1 inhibition activity ([gamma-33P]-ATP, scintillation counting); type: biochemical
# T1 sequence (Q99683 1-1374): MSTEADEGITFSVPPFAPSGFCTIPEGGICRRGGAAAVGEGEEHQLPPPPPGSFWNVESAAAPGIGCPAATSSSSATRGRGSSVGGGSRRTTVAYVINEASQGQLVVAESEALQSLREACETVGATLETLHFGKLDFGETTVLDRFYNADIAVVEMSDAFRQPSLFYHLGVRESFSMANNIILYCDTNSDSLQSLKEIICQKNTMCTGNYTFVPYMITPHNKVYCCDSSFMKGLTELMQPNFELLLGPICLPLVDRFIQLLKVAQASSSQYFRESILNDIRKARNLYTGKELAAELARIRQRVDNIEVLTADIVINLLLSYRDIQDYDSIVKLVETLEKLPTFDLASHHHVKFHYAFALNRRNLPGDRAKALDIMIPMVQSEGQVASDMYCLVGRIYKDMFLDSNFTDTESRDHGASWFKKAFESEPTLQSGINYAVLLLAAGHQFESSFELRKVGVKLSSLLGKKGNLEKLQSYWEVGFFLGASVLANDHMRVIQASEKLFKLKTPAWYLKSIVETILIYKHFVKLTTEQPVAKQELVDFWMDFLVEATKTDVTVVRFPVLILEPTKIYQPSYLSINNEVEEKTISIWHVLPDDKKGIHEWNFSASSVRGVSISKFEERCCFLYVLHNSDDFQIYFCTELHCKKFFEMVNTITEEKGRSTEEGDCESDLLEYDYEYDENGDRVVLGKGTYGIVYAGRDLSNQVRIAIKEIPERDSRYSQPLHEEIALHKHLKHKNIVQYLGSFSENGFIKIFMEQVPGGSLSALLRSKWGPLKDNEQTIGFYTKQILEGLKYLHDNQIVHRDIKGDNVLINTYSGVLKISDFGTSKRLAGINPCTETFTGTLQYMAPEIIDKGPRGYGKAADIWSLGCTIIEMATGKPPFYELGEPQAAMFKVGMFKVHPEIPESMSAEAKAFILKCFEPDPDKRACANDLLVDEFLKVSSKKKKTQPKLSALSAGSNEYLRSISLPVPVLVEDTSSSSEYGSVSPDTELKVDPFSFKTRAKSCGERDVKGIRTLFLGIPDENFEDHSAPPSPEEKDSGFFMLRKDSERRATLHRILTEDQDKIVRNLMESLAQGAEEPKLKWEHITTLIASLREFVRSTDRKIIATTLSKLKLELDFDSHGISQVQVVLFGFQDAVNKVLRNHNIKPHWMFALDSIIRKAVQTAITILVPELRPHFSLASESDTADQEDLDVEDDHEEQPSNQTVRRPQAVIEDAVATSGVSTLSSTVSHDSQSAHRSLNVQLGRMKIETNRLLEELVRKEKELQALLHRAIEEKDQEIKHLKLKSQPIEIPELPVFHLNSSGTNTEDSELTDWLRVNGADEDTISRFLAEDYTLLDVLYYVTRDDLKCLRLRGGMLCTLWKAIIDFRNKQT
# Protocol: The recombinant human ASK1 protein was initiated by adding a mixture of Mg/ATP to the reaction solution (8 mM MOPS PH 7.0, 0.2 mM EDTA, 0.33 mg/mL myelin basic protein, 10 mM Mg Acetate and [gamma-33P]-ATP), and the reaction was terminated by adding 0.5% phosphoric acid after 40 min at room temperature.
# MDR1 = assay: MDR-MDCK cell membrane permeability assessment; type: in vitro ADME; conditions: dog; MDCK-MDR1 monolayer
# Protocol: (§1) MDCK-MDR1 cells (5×10^5 cells/mL) were incubated on a 24-transwell plate (Corning, NY, USA) for 4 days to measure permeability through a single layer of MDR-MDCK cells. The medium was replaced with a new medium every two days, and the electrical resistance between epithelial tissues (TEER) was measured using a Millicell® ERS-2 Volohmmeter (Merck KGaA, Darmstadt, Germany), and the cell membrane permeability test was performed after confirming that this value was greater than or equal to 300 Ohm.cm^2.
# (§2) The apical and basolateral chambers were washed twice each in the order of Hanks' Balanced Salt Solution (HBSS) containing DPBS buffer and 10 mM Hydroxyethyl piperazine Ethane sulfonic acid (HEPES), and in the final washing step, HBSS was filled and maintained at a stable state at 37° C. for 30 minutes. After 30 minutes, the test material was instilled in each chamber and left at 37° C. for 2 hours, and the culture medium of the transferred layer was collected at 30-minute intervals, and the collected amount was supplemented with new HBSS.
# (§3) The apparent permeability coefficient (Papp, cm/sec) was calculated using the following formula:
# (§4) [formula] • Papp: Apparent permeability • dQ/dt: Permeability of the drug • A: Area of the filter membrane on which the cells are laid • C_0: Initial concentration of the drug
# (§5) In addition, the Efflux ratio was calculated as follows: […]
# [2] = MDR-MDCK cell membrane permeability assessment; type: in vitro ADME; conditions: dog; MDCK-MDR1 monolayer, 37° C., 2 hours
# Protocol: as §1, §2, §3, §4, §5
# [3] = tested on: α-Syn transgenic Parkinson's disease mouse model; assay: α-Syn transgenic Parkinson's disease mouse model: step error (beam test); type: in vivo; conditions: at 7 and 9 months; Memantine 10 mg/kg, Example 3 2/10/50 mg/kg, Example 2 2 mg/kg PO QD; vs G2
# Protocol: (§6) The test drug was administered once daily (QD) via oral administration (PO) with a solution of 5 ml/kg for 5 months from 4 months to 9 months of age. Motor behavior tests (beam test) and neurological scores (modified Irwin test) were performed at 4 months (before administration), 7 months, and 9 months. After the final behavioral test, tissue samples were taken. Weight was measured on the same day once a week from 4 months of age until the end of the study.
# The procedure described by Fleming et al. (J Neurosci, 24:9434-40, 2004) was adopted as the beam test (Challenging Beam Traversal). Exercise capacity was measured with a new beam test that was a modification of the existing beam walking test. The beam is made of Plexiglas and consists of four sections (each 25 cm and a total length of 1 m), each with a different width. The beam is designed to start at 3.5 cm wide and gradually narrow in increments of 0.5 cm×1 cm. A shelf 1 cm wide was placed 1.0 cm below the top surface of the beam.
# The mouse was trained to cross the length of the beam, starting from the widest section and ending with the narrowest and most difficult section. The narrow end of the beam is designed to connect directly to the mouse's house cage. The mice were trained for two days before testing, and all training was carried out without a mesh grid. On the first day, two auxiliary exercises were performed, in which the mouse was placed on a beam and the home cage was placed close to the mouse. This induces it to move forward along the beam. […]
# The error was counted if the limb (front or hind leg) passed through the grid during forward movement and was visible between the grid and the beam surface. […] Error was measured by scoring each limb slippage individually. For example, a mouse with three limbs slipping off the grid in one step was rated with an error score of 3 points, while a mouse with only one limb slipped off the grid in one step was evaluated with an error score of 1 in that step. […] The number of step errors and the time it took to cross were measured and averaged in all five experiments.
# [4] = tested on: α-Syn transgenic Parkinson's disease mouse model; assay: α-Syn transgenic Parkinson's disease mouse model: microglial reduction (Iba-1); type: in vivo; conditions: 9 months of age; Memantine 10 mg/kg (G3), G4 2 mg/kg, G5 10 mg/kg, G7 2 mg/kg PO QD
# Protocol: as §6
# At 9 months of age, the measurement period ended, the mice were anesthetized, and then the experiment was terminated by cardiac puncture according to IACUC guidelines. Mice were perfused transcardially with 0.9% saline for tissue staining, followed by 4% paraformaldehyde until the mice were fixed. The brains were isolated and immobilized by soaking in 4% paraformaldehyde at 4° C. for 24 hours, followed by 30% sucrose added to PBS containing 0.02% sodium azide and stored at 4° C. for 3 days. Brain samples embedded in OCT compounds were sectioned to a thickness of 20 μm using Leica CM1950 (Leica Microsystems, Germany). The sections were stored at 4° C. in a preservation solution until they were stained by antibodies. […]
# To assess microgliosis of the cortex, Iba-1-stained brain tissue was imaged in experimental example 10.5 using an immunofluorescence microscope (Olympus, BZ21) in Olympus. Each marker was manually counted to quantify Iba1.
SMILES,IC50 [1] [nM],efflux ratio at 2 h (MDR1),Papp A→B at 2 h [2] [×10⁻⁶ cm/s],Papp B→A at 2 h [2] [×10⁻⁶ cm/s],number of step errors (beam test) [3],number of IBA-1 positive cells in the cerebral cortex [4]
"Cc1cc(F)c(C(=O)Nc2cccc(-n3nnc4c3CCCCC4)n2)cc1-n1cnc(C2CC2)c1 [Example 4, 5-(4-cyclopropyl-1H-imidazole-1-yl)-2-fluoro-4-methyl-N-(6-(5,6,7,8-tetrahydrocyclohepta[d][1,2,3]triazole-1 (4H)-yl)pyridine-2-yl)benzamide]",92,1.53,57.3 ± 4.23,87.4 ± 3.39,,
"CC12CC3CC(C)(C1)CC(N)(C3)C2 [Memantine, reference compound]",,,,,significant reduction in the number of step errors compared to Group G2,significantly reduced

# Reference: patent publication US20260138969A1 (Korea Research Institute of Chemical Technology, priority 2023, published 2026)
